According to patent US9499535B2, “Kinase inhibitors” (ORIGENIS GMBH, priority 2011, dated 2016):

Legend:
SYK kinase = molecular target: T1, SYK kinase (Homo sapiens, UniProt P43405); experiment: SYK assay (OMNIA Kinase Assay, Invitrogen); assay type: biochemical; settings: apparent Ki calculated from the IC50 using the Cheng-Prusoff equation; 1 mM ATP, 10 μM Peptide Substrate; read-out: SYK Activities: Ki
T1 construct: purchased Invitrogen, Carlsbad
How it was run: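 Continuous SOX-fluorescence (Omnia) readout of Tyr 7 peptide (10 μM) phosphorylation with 1 mM ATP and 0.2 mM DTT at 30° C, started by SYK addition. Fluorescence (λex 360/λem 485 nm) was read every 30 s for 30 min. IC50 from velocity vs concentration; apparent Ki via Cheng-Prusoff.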

LRRK2 = LRRK2 (Homo sapiens, UniProt Q5S007); experiment: LRRK2 assay (LanthaScreen Eu Kinase Binding Assay); settings: 5 nM LRRK2, 10 nM tracer 236, RT 1 h; read-out: LRRK2 Activites: IC50
Sequence of LRRK2 (Q5S007 970-2527 limits assumed): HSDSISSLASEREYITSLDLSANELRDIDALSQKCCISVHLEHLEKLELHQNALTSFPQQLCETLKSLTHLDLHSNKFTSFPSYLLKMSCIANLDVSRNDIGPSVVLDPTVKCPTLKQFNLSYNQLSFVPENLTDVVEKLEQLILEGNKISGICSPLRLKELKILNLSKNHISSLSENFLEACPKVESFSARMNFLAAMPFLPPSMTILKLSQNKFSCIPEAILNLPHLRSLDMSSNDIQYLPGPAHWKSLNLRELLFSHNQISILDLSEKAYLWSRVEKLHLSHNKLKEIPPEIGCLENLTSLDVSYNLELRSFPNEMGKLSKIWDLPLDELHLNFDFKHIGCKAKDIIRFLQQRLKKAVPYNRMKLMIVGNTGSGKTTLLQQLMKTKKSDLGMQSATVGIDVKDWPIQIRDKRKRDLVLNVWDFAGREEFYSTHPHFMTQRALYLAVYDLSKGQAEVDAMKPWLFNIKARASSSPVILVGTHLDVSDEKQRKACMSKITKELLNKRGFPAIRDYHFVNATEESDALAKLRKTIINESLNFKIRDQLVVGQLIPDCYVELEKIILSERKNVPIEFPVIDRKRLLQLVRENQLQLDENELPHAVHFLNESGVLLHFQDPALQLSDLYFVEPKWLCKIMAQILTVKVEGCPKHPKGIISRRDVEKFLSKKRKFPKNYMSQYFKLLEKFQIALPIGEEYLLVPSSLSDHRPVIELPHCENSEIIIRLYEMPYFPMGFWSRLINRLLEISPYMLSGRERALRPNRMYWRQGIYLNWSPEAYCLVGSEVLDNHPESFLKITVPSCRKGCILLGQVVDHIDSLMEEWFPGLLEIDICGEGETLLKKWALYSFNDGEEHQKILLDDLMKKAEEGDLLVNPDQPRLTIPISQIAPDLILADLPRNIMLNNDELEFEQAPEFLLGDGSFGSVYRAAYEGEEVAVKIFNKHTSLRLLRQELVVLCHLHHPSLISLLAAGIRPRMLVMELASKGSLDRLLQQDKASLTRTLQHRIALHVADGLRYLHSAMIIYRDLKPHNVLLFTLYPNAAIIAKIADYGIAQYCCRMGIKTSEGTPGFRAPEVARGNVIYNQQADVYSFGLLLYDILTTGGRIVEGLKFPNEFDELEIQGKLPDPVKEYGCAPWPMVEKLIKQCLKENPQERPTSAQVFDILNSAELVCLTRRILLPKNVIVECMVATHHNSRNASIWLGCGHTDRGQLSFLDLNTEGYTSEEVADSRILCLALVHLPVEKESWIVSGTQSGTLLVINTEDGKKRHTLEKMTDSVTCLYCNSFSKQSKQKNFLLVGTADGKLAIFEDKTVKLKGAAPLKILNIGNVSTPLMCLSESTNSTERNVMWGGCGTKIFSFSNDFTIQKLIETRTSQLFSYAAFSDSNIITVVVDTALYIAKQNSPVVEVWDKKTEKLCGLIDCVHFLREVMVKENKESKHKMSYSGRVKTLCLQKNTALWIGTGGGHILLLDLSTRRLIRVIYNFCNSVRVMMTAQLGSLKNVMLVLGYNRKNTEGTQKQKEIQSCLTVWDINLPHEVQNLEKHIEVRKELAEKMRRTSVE
How it was run: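 Kinase binding was detected by europium anti-tag antibody FRET with a competing tracer, so inhibitor binding lowers the FRET signal. IC50 came from a variable-slope sigmoidal fit of emission ratio against inhibitor concentration.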

MYLK = MYLK (Homo sapiens, UniProt Q15746); experiment: MYLK assay (LanthaScreen Eu Kinase Binding Assay); settings: 5 nM MYLK, 30 nM tracer 236, RT 1 h; read-out: MYLK Activites: IC50
Sequence of MYLK (Q15746 whole entry): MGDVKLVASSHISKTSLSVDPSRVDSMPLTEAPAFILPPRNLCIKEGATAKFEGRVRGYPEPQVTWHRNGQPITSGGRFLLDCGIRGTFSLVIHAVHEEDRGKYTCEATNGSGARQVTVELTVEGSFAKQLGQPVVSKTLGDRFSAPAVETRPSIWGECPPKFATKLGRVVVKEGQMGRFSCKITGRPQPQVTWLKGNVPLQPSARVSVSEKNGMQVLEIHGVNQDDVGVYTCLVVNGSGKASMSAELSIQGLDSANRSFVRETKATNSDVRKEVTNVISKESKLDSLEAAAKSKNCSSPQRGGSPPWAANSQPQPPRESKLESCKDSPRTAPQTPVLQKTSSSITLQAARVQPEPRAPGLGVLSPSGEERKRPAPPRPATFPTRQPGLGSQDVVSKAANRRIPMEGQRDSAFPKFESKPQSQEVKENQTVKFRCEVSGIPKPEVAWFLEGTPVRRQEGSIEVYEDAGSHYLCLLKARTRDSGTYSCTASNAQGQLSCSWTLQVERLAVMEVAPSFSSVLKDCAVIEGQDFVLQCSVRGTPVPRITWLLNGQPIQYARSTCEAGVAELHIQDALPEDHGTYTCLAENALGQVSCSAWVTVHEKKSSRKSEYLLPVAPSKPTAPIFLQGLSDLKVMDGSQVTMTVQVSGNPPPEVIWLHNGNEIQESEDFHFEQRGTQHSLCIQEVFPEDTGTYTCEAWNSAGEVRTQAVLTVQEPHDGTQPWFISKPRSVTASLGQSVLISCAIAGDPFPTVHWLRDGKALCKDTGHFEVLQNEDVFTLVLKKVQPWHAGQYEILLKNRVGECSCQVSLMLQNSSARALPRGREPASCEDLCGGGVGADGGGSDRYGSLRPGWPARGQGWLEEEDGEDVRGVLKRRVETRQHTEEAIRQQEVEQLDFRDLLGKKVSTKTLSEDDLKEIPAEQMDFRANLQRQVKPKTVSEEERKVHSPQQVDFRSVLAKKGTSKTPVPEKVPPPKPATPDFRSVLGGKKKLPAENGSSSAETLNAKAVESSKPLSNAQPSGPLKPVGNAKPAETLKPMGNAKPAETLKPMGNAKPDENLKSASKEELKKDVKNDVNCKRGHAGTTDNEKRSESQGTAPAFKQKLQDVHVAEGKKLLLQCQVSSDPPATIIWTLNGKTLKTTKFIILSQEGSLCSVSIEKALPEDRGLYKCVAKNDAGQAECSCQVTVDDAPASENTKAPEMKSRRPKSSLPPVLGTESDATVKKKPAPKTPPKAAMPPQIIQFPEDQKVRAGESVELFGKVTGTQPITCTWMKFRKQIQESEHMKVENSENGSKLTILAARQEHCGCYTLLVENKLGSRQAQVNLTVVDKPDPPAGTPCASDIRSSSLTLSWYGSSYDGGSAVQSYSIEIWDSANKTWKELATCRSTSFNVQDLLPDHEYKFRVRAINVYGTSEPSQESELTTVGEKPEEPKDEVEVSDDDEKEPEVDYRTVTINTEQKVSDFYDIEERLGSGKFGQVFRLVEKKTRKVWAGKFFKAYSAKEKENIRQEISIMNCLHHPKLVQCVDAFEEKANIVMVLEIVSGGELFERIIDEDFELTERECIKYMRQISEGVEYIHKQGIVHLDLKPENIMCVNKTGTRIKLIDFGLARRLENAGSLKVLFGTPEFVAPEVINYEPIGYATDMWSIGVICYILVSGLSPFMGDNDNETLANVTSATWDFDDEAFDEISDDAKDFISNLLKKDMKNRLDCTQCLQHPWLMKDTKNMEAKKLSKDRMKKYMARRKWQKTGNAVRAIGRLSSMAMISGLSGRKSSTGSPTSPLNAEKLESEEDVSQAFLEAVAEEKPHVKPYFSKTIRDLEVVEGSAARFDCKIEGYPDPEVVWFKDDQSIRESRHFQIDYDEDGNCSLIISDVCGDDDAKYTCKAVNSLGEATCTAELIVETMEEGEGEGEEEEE
How it was run: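 TR-FRET tracer-displacement binding: 5 nM MYLK with 2 nM Eu-anti-GST antibody and 30 nM tracer 236 in kinase buffer A, 1 h at RT. The 665/615 nm emission ratio was plotted against inhibitor concentration; IC50 from variable-slope sigmoidal fit.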

Compound | Ki (SYK kinase) [nM] | IC50 (LRRK2) [nM] | IC50 (MYLK) [nM]
COc1ccc2nc(Nc3ccc(C(=O)N4CCOCC4)cc3)c3n[nH]cc3c2c1 [Example #232, [4-(8-Methoxy-2H-pyrazolo[3,4-c]quinolin-4-ylamino)-phenyl]-morpholin-4-yl-methanone] | 10 to 100 | 100 to 1000 | < 5000
COc1ccc2nc(Nc3ccc(CN4CCCC4)cc3)c3n[nH]cc3c2c1 [Example #234, (8-Methoxy-2H-pyrazolo[3,4-c]quinolin-4-yl)-(4-pyrrolidin-1-ylmethyl-phenyl)-amine] | 10 to 100 | 10 to 100 | < 5000
COc1ccc2nc(Nc3ccc(C(=O)N4CCN(C)CC4)cc3)c3n[nH]cc3c2c1 [Example #235, (4-((8-methoxy-2H-pyrazolo[3,4-c]quinolin-4-yl)amino)phenyl)(4-methylpiperazin-1-yl)methanone] | 10 to 100 | 10 to 100 | < 5000
COc1ccc2nc(Nc3ccc(CN4CCOCC4)cc3)c3n[nH]cc3c2c1 [Example #237, (8-Methoxy-2H-pyrazolo[3,4-c]quinolin-4-yl)-(4-morpholin-4-ylmethyl-phenyl)-amine] | 10 to 100 | 10 to 100 | < 5000
COc1ccc2nc(Nc3ccc(CN4CCN(C)CC4)cc3)c3n[nH]cc3c2c1 [Example #238, (8-Methoxy-2H-pyrazolo[3,4-c]quinolin-4-yl)-[4-(4-methyl-piperazin-1-ylmethyl)-phenyl]-amine] | 10 to 100 | 100 to 1000 | < 5000
CCN1CCN(c2ccc(Nc3nc4c(OC)cccc4c4c[nH]nc34)cc2)CC1 [Example #239, [4-(4-Ethyl-piperazin-1-yl)-phenyl]-(6-methoxy-2H-pyrazolo[3,4-c]quinolin-4-yl)-amine] | 10 to 100 | 100 to 1000 | < 5000
CCN1CCN(c2ccc(Nc3nc4ccc(OC)cc4c4c[nH]nc34)cc2F)CC1 [Example #240, [4-(4-ethyl-piperazin-1-yl)-3-fluorophenyl]-(8-methoxy-2H-pyrazolo[3,4-c]quinolin-4-yl)-amine] | 10 to 100 | 10 to 100 | < 5000
COc1cccc2c1nc(Nc1ccc3c(c1)NC(=O)CCC3)c1n[nH]cc12 [Example #241, 8-((6-methoxy-2H-pyrazolo[3,4-c]quinolin-4-yl)amino)-4,5-dihydro-1H-benzo[b]azepin-2(3H)-one] | 10 to 100 | 100 to 1000 | < 5000
COc1cccc2c1nc(Nc1ccc3[nH]cnc3c1)c1n[nH]cc12 [Example #242, (1H-benzoimidazol-5-yl)-(6-methoxy-2H-pyrazolo[3,4-c]quinolin-4-yl)-amine] | 10 to 100 | 100 to 1000 | < 5000
COc1cccc2nc(Nc3ccc(N4CCN(C5CC5)CC4)cc3)c3n[nH]cc3c12 [Example #243, [4-(4-cyclopropyl-piperazin-1-yl)-phenyl]-(9-methoxy-2H-pyrazolo[3,4-c]quinolin-4-yl)-amine] | 10 to 100 | 100 to 1000 | < 5000
COc1ccc2nc(Nc3ccc(OCCN(C)C)nc3)c3n[nH]cc3c2c1 [Example #245, [6-(2-Dimethylamino-ethoxy)-pyridin-3-yl]-(8-methoxy-2H-pyrazolo[3,4-c]quinolin-4-yl)-amine] | 100 to 1000 | 100 to 1000 | < 5000
COc1cccc2c1nc(Nc1ccc(N3CCOCC3)c(F)c1)c1n[nH]cc12 [Example #246, (3-Fluoro-4-morpholin-4-yl-phenyl)-(6-methoxy-2H-pyrazolo[3,4-c]quinolin-4-yl)-amine] | < 10 | 100 to 1000 | < 5000
COc1cccc2c1nc(Nc1ccc3[nH]c(C)nc3c1)c1n[nH]cc12 [Example #248, (6-Methoxy-2H-pyrazolo[3,4-c]quinolin-4-yl)-(2-methyl-1H-benzoimidazol-5-yl)-amine] | 100 to 1000 | 100 to 1000 | < 5000
COc1cc(OC)c2nc(Nc3ccc(OC)c(OC)c3)c3n[nH]cc3c2c1 [Example #251, (3,4-Dimethoxy-phenyl)-(6,8-dimethoxy-2H-pyrazolo[3,4-c]quinolin-4-yl)-amine] | < 10 | 100 to 1000 | < 5000

Next, values leading:

Ki (SYK kinase) [nM] | IC50 (LRRK2) [nM] | IC50 (MYLK) [nM] | Compound
100 to 1000 | 100 to 1000 | < 5000 | COc1cc(OC)c2nc(Nc3ccc(N4CCN(C5CC5)CC4)cc3)c3n[nH]cc3c2c1 [Example #252, [4-(4-Cyclopropyl-piperazin-1-yl)-phenyl]-(6,8-dimethoxy-2H-pyrazolo[3,4-c]quinolin-4-yl)-amine]
100 to 1000 | 100 to 1000 | < 5000 | COc1ccc2nc(Nc3ccc(NCCCN(C)C)nc3)c3n[nH]cc3c2c1 [Example #253, N2-(3-(dimethylamino)propyl)-N5-(8-methoxy-2H-pyrazolo[3,4-c]quinolin-4-yl)pyridine-2,5-diamine]
10 to 100 | 100 to 1000 | < 5000 | COc1ccc2nc(Nc3ccc(NCCN(C)C)nc3)c3n[nH]cc3c2c1 [Example #254, N2-(2-(dimethylamino)ethyl)-N5-(8-methoxy-2H-pyrazolo[3,4-c]quinolin-4-yl)pyridine-2,5-diamine]
10 to 100 | 100 to 1000 | < 5000 | COc1ccc2nc(Nc3ccc(OC4CCN(C)CC4)nc3)c3n[nH]cc3c2c1 [Example #255, (8-Methoxy-2H-pyrazolo[3,4-c]quinolin-4-yl)-[6-(1-methyl-piperidin-4-yloxy)-pyridin-3-yl]-amine]
< 10 | 100 to 1000 | < 5000 | COc1ccc2c(c1)nc(Nc1ccc3c(c1)NC(=O)CCC3)c1n[nH]cc12 [Example #257, 8-((7-methoxy-2H-pyrazolo[3,4-c]quinolin-4-yl)amino)-4,5-dihydro-1H-benzo[b]azepin-2(3H)-one]
100 to 1000 | 100 to 1000 | < 5000 | COc1cccc2c1nc(Nc1ccc3c(c1)OCCO3)c1n[nH]cc12 [Example #258, (2,3-Dihydro-benzo[1,4]dioxin-6-yl)-(6-methoxy-2H-pyrazolo[3,4-c]quinolin-4-yl)-amine]
10 to 100 | 100 to 1000 | < 5000 | COc1ccc2c(c1)nc(Nc1ccc(N3CCN(C4CC4)CC3)cc1)c1n[nH]cc12 [Example #262, [4-(4-Cyclopropyl-piperazin-1-yl)-phenyl]-(7-methoxy-2H-pyrazolo[3,4-c]quinolin-4-yl)-amine]
10 to 100 | 100 to 1000 | < 5000 | COc1ccc2c(c1)nc(Nc1ccc3[nH]c(C)nc3c1)c1n[nH]cc12 [Example #264, (7-Methoxy-2H-pyrazolo[3,4-c]quinolin-4-yl)-(2-methyl-1H-benzoimidazol-5-yl)-amine]
< 10 | 10 to 100 | < 5000 | COc1ccc2c(c1)nc(Nc1ccc3c(c1)NC(=O)CO3)c1n[nH]cc12 [Example #266, 6-((7-methoxy-2H-pyrazolo[3,4-c]quinolin-4-yl)amino)-2H-benzo[b][1,4]oxazin-3(4H)-one]
10 to 100 | 100 to 1000 | < 5000 | COc1cccc2c1nc(Nc1ccc3[nH]ncc3c1)c1n[nH]cc12 [Example #268, (1H-Indazol-5-yl)-(6-methoxy-2H-pyrazolo[3,4-c]quinolin-4-yl)-amine]
